In ChEMBL document CHEMBL1121869, “Potential inhibitors of L-asparagine biosynthesis. 5. Electrophilic amide analogues of (S)-2,3-diaminopropionic acid” (J Med Chem, 1981):

Columns and labels:
TsH1 [1] = test: Compound was evaluated for the growth inhibition of TsH1 cells in an enriched eagles minimal essential medium, medium lacking asparagine at a concentration of 0.2 mg/mL (0.65 mM); Cells dead; type: functional, cell-based; settings: Cricetulus griseus
TsH1 [2] = test: Compound was evaluated for the growth inhibition of TsH1 cells in an enriched eagles minimal essential medium, medium lacking aspartic acid at a concentration of 1.0 mg/mL (3.27 mM); Cells dead; type: functional, cell-based; settings: Cricetulus griseus
[3] = molecular target: T1, Asparagine synthetase [glutamine-hydrolyzing] (Rattus norvegicus) (UniProt P49088); test: Inhibition of asparagine synthetase from partially purified rat Novikoff hepatoma at a final concentration of 1 mM
T1 sequence (whole entry): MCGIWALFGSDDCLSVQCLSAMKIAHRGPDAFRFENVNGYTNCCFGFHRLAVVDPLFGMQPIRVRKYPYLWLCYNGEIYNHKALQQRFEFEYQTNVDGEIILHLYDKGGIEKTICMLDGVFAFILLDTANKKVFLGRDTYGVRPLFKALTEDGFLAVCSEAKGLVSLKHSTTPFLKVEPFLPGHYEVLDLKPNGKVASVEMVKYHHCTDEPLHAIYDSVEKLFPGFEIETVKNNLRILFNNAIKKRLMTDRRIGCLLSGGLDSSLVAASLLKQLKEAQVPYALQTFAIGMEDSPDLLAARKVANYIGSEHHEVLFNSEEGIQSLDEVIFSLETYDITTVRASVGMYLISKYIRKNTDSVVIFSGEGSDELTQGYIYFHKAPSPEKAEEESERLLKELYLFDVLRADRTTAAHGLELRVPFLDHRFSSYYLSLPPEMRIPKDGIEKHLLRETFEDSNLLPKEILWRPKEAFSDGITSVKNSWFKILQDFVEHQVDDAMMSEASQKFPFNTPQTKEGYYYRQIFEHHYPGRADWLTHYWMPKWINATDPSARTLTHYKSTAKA

TsH1 [4] = test: Compound was evaluated for the growth inhibition of TsH1 cells in an enriched eagles minimal essential medium, medium lacking aspartic acid and asparagine at a concentration of 0.2 mg/mL (0.65 mM); Cells dead; type: functional, cell-based; settings: Cricetulus griseus
TsH1 [5] = test: Compound was evaluated for the growth inhibition of TsH1 cells in an enriched eagles minimal essential medium, complete medium at a concentration of 0.01 mg/mL (0.03 mM); Heavy growth; type: functional, cell-based; settings: Cricetulus griseus
TsH1 [6] = test: Compound was evaluated for the growth inhibition of TsH1 cells in an enriched eagles minimal essential medium, medium lacking aspartic acid at a concentration of 0.04 mg/mL (0.13 mM); Heavy growth; type: functional, cell-based; settings: Cricetulus griseus
TsH1 [7] = test: Compound was evaluated for the growth inhibition of TsH1 cells in an enriched eagles minimal essential medium, medium lacking aspartic acid at a concentration of 0.2 mg/mL (0.65 mM); Light growth; type: functional, cell-based; settings: Cricetulus griseus
TsH1 [8] = test: Compound was evaluated for the growth inhibition of TsH1 cells in an enriched eagles minimal essential medium, medium lacking asparagine at a concentration of 1.0 mg/mL (3.27 mM); Cells dead; type: functional, cell-based; settings: Cricetulus griseus
TsH1 [9] = test: Compound was evaluated for the growth inhibition of TsH1 cells in an enriched eagles minimal essential medium, complete medium at a concentration of 0.2 mg/mL (0.65 mM); Light growth; type: functional, cell-based; settings: Cricetulus griseus
TsH1 [10] = test: Compound was evaluated for the growth inhibition of TsH1 cells in an enriched eagles minimal essential medium, medium lacking aspartic acid and asparagine at a concentration of 0.01 mg/mL (0.03 mM); Medium growth; type: functional, cell-based; settings: Cricetulus griseus
TsH1 [11] = test: Compound was evaluated for the growth inhibition of TsH1 cells in an enriched eagles minimal essential medium, medium lacking asparagine at a concentration of 0.04 mg/mL (0.13 mM); Heavy growth; type: functional, cell-based; settings: Cricetulus griseus
TsH1 [12] = test: Compound was evaluated for the growth inhibition of TsH1 cells in an enriched eagles minimal essential medium, medium lacking aspartic acid and asparagine at a concentration of 1.0 mg/mL (3.27 mM); Cells dead; type: functional, cell-based; settings: Cricetulus griseus
TsH1 [13] = test: Compound was evaluated for the growth inhibition of TsH1 cells in an enriched eagles minimal essential medium, complete medium at a concentration of 1.0 mg/mL (3.27 mM); Cells dead; type: functional, cell-based; settings: Cricetulus griseus
TsH1 [14] = test: Compound was evaluated for the growth inhibition of TsH1 cells in an enriched eagles minimal essential medium, medium lacking aspartic acid at a concentration of 0.01 mg/mL (0.03 mM); Heavy growth; type: functional, cell-based; settings: Cricetulus griseus
TsH1 [15] = test: Compound was evaluated for the growth inhibition of TsH1 cells in an enriched eagles minimal essential medium, complete medium at a concentration of 0.04 mg/mL (0.13 mM); Heavy growth; type: functional, cell-based; settings: Cricetulus griseus
TsH1 [16] = test: Compound was evaluated for the growth inhibition of TsH1 cells in an enriched eagles minimal essential medium, medium lacking aspartic acid and asparagine at a concentration of 0.04 mg/mL (0.13 mM); Heavy growth; type: functional, cell-based; settings: Cricetulus griseus
TsH1 [17] = test: Compound was evaluated for the growth inhibition of TsH1 cells in an enriched eagles minimal essential medium, medium lacking asparagine at a concentration of 0.01 mg/mL (0.03 mM); Heavy growth; type: functional, cell-based; settings: Cricetulus griseus
TsH1 [18] = test: Compound was evaluated for the growth inhibition of TsH1 cells in an enriched eagles minimal essential medium, complete medium at a concentration of 0.2 mg/mL (0.87 mM); Heavy growth; type: functional, cell-based; settings: Cricetulus griseus
TsH1 [19] = test: Compound was evaluated for the growth inhibition of TsH1 cells in an enriched eagles minimal essential medium, medium lacking aspartic acid and asparagine at a concentration of 0.2 mg/mL (0.87 mM); Heavy growth; type: functional, cell-based; settings: Cricetulus griseus
TsH1 [20] = test: Compound was evaluated for the growth inhibition of TsH1 cells in an enriched eagles minimal essential medium, medium lacking asparagine at a concentration of 0.01 mg/mL (0.01 mM); Heavy growth; type: functional, cell-based; settings: Cricetulus griseus
TsH1 [21] = test: Compound was evaluated for the growth inhibition of TsH1 cells in an enriched eagles minimal essential medium, medium lacking asparagine at a concentration of 0.2 mg/mL (0.87 mM); Heavy growth; type: functional, cell-based; settings: Cricetulus griseus
TsH1 [22] = test: Compound was evaluated for the growth inhibition of TsH1 cells in an enriched eagles minimal essential medium, complete medium at a concentration of 1.0 mg/mL (4.34 mM); Heavy growth; type: functional, cell-based; settings: Cricetulus griseus
TsH1 [23] = test: Compound was evaluated for the growth inhibition of TsH1 cells in an enriched eagles minimal essential medium, medium lacking aspartic acid at a concentration of 1.0 mg/mL (4.34 mM); Heavy growth; type: functional, cell-based; settings: Cricetulus griseus
TsH1 [24] = test: Compound was evaluated for the growth inhibition of TsH1 cells in an enriched […] at a concentration of 0.2 mg/mL (0.87 mM); Heavy growth; type: functional, cell-based; settings: Cricetulus griseus
TsH1 [25] = test: Compound was evaluated for the growth inhibition of TsH1 cells in an enriched eagles minimal essential medium, medium lacking aspartic acid and asparagine at a concentration of 0.01 mg/mL (0.01 mM); Heavy growth; type: functional, cell-based; settings: Cricetulus griseus
TsH1 [26] = test: Compound was evaluated for the growth inhibition of TsH1 cells in an enriched eagles minimal essential medium, medium lacking asparagine at a concentration of 0.04 mg/mL (0.17 mM); Heavy growth; type: functional, cell-based; settings: Cricetulus griseus
TsH1 [27] = test: Compound was evaluated for the growth inhibition of TsH1 cells in an enriched eagles minimal essential medium, cmedium lacking aspartic acid at a concentration of 0.04 mg/mL (0.17 mM); Heavy growth; type: functional, cell-based; settings: Cricetulus griseus
TsH1 [28] = test: Compound was evaluated for the growth inhibition of TsH1 cells in an enriched eagles minimal essential medium, complete medium at a concentration of 0.01 mg/mL (0.01 mM); Heavy growth; type: functional, cell-based; settings: Cricetulus griseus
TsH1 [29] = test: Compound was evaluated for the growth inhibition of TsH1 cells in an enriched eagles minimal essential medium, medium lacking asparagine at a concentration of 1.0 mg/mL (4.34 mM); Heavy growth; type: functional, cell-based; settings: Cricetulus griseus
TsH1 [30] = test: Compound was evaluated for the growth inhibition of TsH1 cells in an enriched eagles minimal essential medium, medium lacking aspartic acid and asparagine at a concentration of 0.04 mg/mL (0.17 mM); Heavy growth; type: functional, cell-based; settings: Cricetulus griseus
TsH1 [31] = test: Compound was evaluated for the growth inhibition of TsH1 cells in an enriched eagles minimal essential medium, complete medium at a concentration of 0.04 mg/mL (0.17 mM); Heavy growth; type: functional, cell-based; settings: Cricetulus griseus
TsH1 [32] = test: Compound was evaluated for the growth inhibition of TsH1 cells in an enriched eagles minimal essential medium, medium lacking aspartic acid and asparagine at a concentration of 1.0 mg/mL (4.34 mM); Heavy growth; type: functional, cell-based; settings: Cricetulus griseus
TsH1 [33] = test: Compound was evaluated for the growth inhibition of TsH1 cells in an enriched eagles minimal essential medium, medium lacking aspartic acid at a concentration of 0.01 mg/mL (0.01 mM); Heavy growth; type: functional, cell-based; settings: Cricetulus griseus

`NC(CNC(=O)CBr)C(=O)O` (centres undefined) was tested, and the Growth inhibition (TsH1 [1]) was “Not toxic”, the Growth inhibition (TsH1 [2]) was “Not toxic” and the inhibition [3] was 93%. The Growth inhibition (TsH1 [4]) was “Not toxic”, the Growth inhibition (TsH1 [5]) was “Heavy Growth” and the Growth inhibition (TsH1 [6]) was “Heavy Growth”. The Growth inhibition (TsH1 [7]) was “Light growth”, the Growth inhibition (TsH1 [8]) was “Not toxic” and the Growth inhibition (TsH1 [9]) was “Light growth”. The Growth inhibition (TsH1 [10]) was “Medium Growth”, the Growth inhibition (TsH1 [11]) was “Heavy Growth” and the Growth inhibition (TsH1 [12]) was “Not toxic”. For the same molecule, the Growth inhibition (TsH1 [13]) was “Not toxic”, the Growth inhibition (TsH1 [14]) was “Heavy Growth” and the Growth inhibition (TsH1 [15]) was “Heavy Growth”. For the same molecule, the Growth inhibition (TsH1 [16]) was “Heavy Growth” and the Growth inhibition (TsH1 [17]) was “Heavy Growth”.
`CCOC(=O)/C=C/C(=O)NCC(N)C(=O)O` (centres undefined) was tested, and the inhibition [3] was 37.4%, the Growth inhibition (TsH1 [18]) was “Heavy Growth” and the Growth inhibition (TsH1 [19]) was “Heavy Growth”. For the same molecule, the Growth inhibition (TsH1 [20]) was “Heavy Growth”, the Growth inhibition (TsH1 [21]) was “Heavy Growth” and the Growth inhibition (TsH1 [22]) was “Heavy Growth”. The Growth inhibition (TsH1 [23]) was “Heavy Growth”, the Growth inhibition (TsH1 [24]) was “Heavy Growth” and the Growth inhibition (TsH1 [25]) was “Heavy Growth”. The Growth inhibition (TsH1 [26]) was “Heavy Growth”, the Growth inhibition (TsH1 [27]) was “Heavy Growth” and the Growth inhibition (TsH1 [28]) was “Heavy Growth”. The Growth inhibition (TsH1 [29]) was “Heavy Growth”, the Growth inhibition (TsH1 [30]) was “Heavy Growth” and the Growth inhibition (TsH1 [31]) was “Heavy Growth”. For the same molecule, the Growth inhibition (TsH1 [32]) was “Heavy Growth” and the Growth inhibition (TsH1 [33]) was “Heavy Growth”.
